In PubChem BioAssay (NCI):
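Assay format: 96-well plates, 48-hour exposure. Here, GI50 denotes the concentration required for 50% inhibition of growth. The concentration for full growth arrest is given as TGI.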

Experiments:
Test in all cases: inhibition of tumour cell growth, NCI panel, 48 h
OVCAR-8 ovarian = test system: OVCAR-8 ovarian
RXF 393 renal = test system: RXF 393 renal
SW-620 colon = test system: SW-620 colon
ACHN renal = test system: ACHN renal
MDA-MB-468 breast = test system: MDA-MB-468 breast
HL-60(TB) leukemia = test system: HL-60(TB) leukemia
SF-295 CNS = test system: SF-295 CNS
HS 578T breast = test system: HS 578T breast
MDA-MB-231 breast = test system: MDA-MB-231 breast
SNB-75 CNS = test system: SNB-75 CNS
SK-MEL-28 melanoma = test system: SK-MEL-28 melanoma
NCI-H522 lung = test system: NCI-H522 lung
SF-539 CNS = test system: SF-539 CNS
M14 melanoma = test system: M14 melanoma
HOP-92 NSCLC = test system: HOP-92 NSCLC
CCRF-CEM leukemia = test system: CCRF-CEM leukemia
PC-3 prostate = test system: PC-3 prostate
SNB-19 CNS = test system: SNB-19 CNS
SK-MEL-2 melanoma = test system: SK-MEL-2 melanoma
SN12C renal = test system: SN12C renal
MALME-3M melanoma = test system: MALME-3M melanoma
U251 CNS = test system: U251 CNS
TK-10 renal = test system: TK-10 renal
NCI-H226 lung = test system: NCI-H226 lung
BT-549 breast = test system: BT-549 breast
DU-145 prostate = test system: DU-145 prostate
RPMI-8226 leukemia = test system: RPMI-8226 leukemia
MOLT-4 leukemia = test system: MOLT-4 leukemia
MCF7 breast = test system: MCF7 breast
UO-31 renal = test system: UO-31 renal
SK-MEL-5 melanoma = test system: SK-MEL-5 melanoma
UACC-257 melanoma = test system: UACC-257 melanoma
NCI/ADR-RES ovarian = test system: NCI/ADR-RES ovarian
KM12 colon = test system: KM12 colon
A549 NSCLC = test system: A549 NSCLC
MDA-MB-435 = test system: MDA-MB-435
SF-268 CNS = test system: SF-268 CNS
OVCAR-4 ovarian = test system: OVCAR-4 ovarian
EKVX NSCLC = test system: EKVX NSCLC
COLO 205 colon = test system: COLO 205 colon
HCC-2998 colon = test system: HCC-2998 colon
NCI-H23 lung = test system: NCI-H23 lung
LOX IMVI melanoma = test system: LOX IMVI melanoma
T-47D breast = test system: T-47D breast
A498 renal = test system: A498 renal
HCT-15 colon = test system: HCT-15 colon
SK-OV-3 ovarian = test system: SK-OV-3 ovarian
SR leukemia = test system: SR leukemia
786-0 renal = test system: 786-0 renal
NCI-H460 lung = test system: NCI-H460 lung
HT29 colon = test system: HT29 colon
OVCAR-3 ovarian = test system: OVCAR-3 ovarian
OVCAR-5 ovarian = test system: OVCAR-5 ovarian
HOP-62 NSCLC = test system: HOP-62 NSCLC
HCT-116 colon = test system: HCT-116 colon
CAKI-1 renal = test system: CAKI-1 renal
IGROV1 ovarian = test system: IGROV1 ovarian
K-562 leukemia = test system: K-562 leukemia
UACC-62 melanoma = test system: UACC-62 melanoma

Structure (SMILES): Fc1cccc(CNc2nc(SCCN3CCOCC3)nc3c2cnn3CC(Cl)c2ccc(Br)cc2)c1 (stereo not drawn)
- GI50 (OVCAR-8 ovarian): 10.7 µM
- TGI (OVCAR-8 ovarian): > 100 µM
- GI50 (RXF 393 renal): 2.44 µM
- TGI (RXF 393 renal): 21.3 µM
- GI50 (SW-620 colon): 2.89 µM
- TGI (SW-620 colon): 10.4 µM
- GI50 (ACHN renal): 5.83 µM
- TGI (ACHN renal): > 100 µM
- GI50 (MDA-MB-468 breast): 2.62 µM
- TGI (MDA-MB-468 breast): 8.48 µM
- GI50 (HL-60(TB) leukemia): 3.85 µM
- TGI (HL-60(TB) leukemia): 50.4 µM
- GI50 (SF-295 CNS): 4.16 µM
- TGI (SF-295 CNS): > 100 µM
- GI50 (HS 578T breast): 8.83 µM
- TGI (HS 578T breast): > 100 µM
- GI50 (MDA-MB-231 breast): 4.25 µM
- TGI (MDA-MB-231 breast): 52.6 µM
- GI50 (SNB-75 CNS): 6.5 µM
- TGI (SNB-75 CNS): > 100 µM
- GI50 (SK-MEL-28 melanoma): 8.51 µM
- TGI (SK-MEL-28 melanoma): > 100 µM
- GI50 (NCI-H522 lung): 8.22 µM
- TGI (NCI-H522 lung): > 100 µM
- GI50 (SF-539 CNS): 4.58 µM
- TGI (SF-539 CNS): > 100 µM
- GI50 (M14 melanoma): 7.96 µM
- TGI (M14 melanoma): > 100 µM
- GI50 (HOP-92 NSCLC): 13.4 µM
- TGI (HOP-92 NSCLC): > 100 µM
- GI50 (CCRF-CEM leukemia): 5.41 µM
- TGI (CCRF-CEM leukemia): > 100 µM
- GI50 (PC-3 prostate): 6.58 µM
- TGI (PC-3 prostate): > 100 µM
- GI50 (SNB-19 CNS): 16.2 µM
- TGI (SNB-19 CNS): > 100 µM
- GI50 (SK-MEL-2 melanoma): 11.9 µM
- TGI (SK-MEL-2 melanoma): 37.5 µM
- GI50 (SN12C renal): 12 µM
- TGI (SN12C renal): > 100 µM
- GI50 (MALME-3M melanoma): 3.02 µM
- TGI (MALME-3M melanoma): 24.9 µM
- GI50 (U251 CNS): 6.12 µM
- TGI (U251 CNS): > 100 µM
- GI50 (TK-10 renal): 43.8 µM
- TGI (TK-10 renal): > 100 µM
- GI50 (NCI-H226 lung): 13.2 µM
- TGI (NCI-H226 lung): 98.4 µM
- GI50 (BT-549 breast): 21.2 µM
- TGI (BT-549 breast): 57.4 µM
- GI50 (DU-145 prostate): 39 µM
- TGI (DU-145 prostate): > 100 µM
- GI50 (RPMI-8226 leukemia): 4.33 µM
- TGI (RPMI-8226 leukemia): > 100 µM
- GI50 (MOLT-4 leukemia): 2.58 µM
- TGI (MOLT-4 leukemia): 15.7 µM
- GI50 (MCF7 breast): 4.61 µM
- TGI (MCF7 breast): > 100 µM
- GI50 (UO-31 renal): 5.11 µM
- TGI (UO-31 renal): > 100 µM
- GI50 (SK-MEL-5 melanoma): 7.54 µM
- TGI (SK-MEL-5 melanoma): 20.3 µM
- GI50 (UACC-257 melanoma): 13.9 µM
- TGI (UACC-257 melanoma): > 100 µM
- GI50 (NCI/ADR-RES ovarian): 4.52 µM
- TGI (NCI/ADR-RES ovarian): > 100 µM
- GI50 (KM12 colon): 4.81 µM
- TGI (KM12 colon): > 100 µM
- GI50 (A549 NSCLC): 4.88 µM
- TGI (A549 NSCLC): > 100 µM
- GI50 (MDA-MB-435): 11.5 µM
- TGI (MDA-MB-435): > 100 µM
- GI50 (SF-268 CNS): 10 µM
- TGI (SF-268 CNS): > 100 µM
- GI50 (OVCAR-4 ovarian): 8.81 µM
- TGI (OVCAR-4 ovarian): > 100 µM
- GI50 (EKVX NSCLC): 8.05 µM
- TGI (EKVX NSCLC): > 100 µM
- GI50 (COLO 205 colon): 4.31 µM
- TGI (COLO 205 colon): 20.5 µM
- GI50 (HCC-2998 colon): 3.46 µM
- TGI (HCC-2998 colon): > 100 µM
- GI50 (NCI-H23 lung): 17 µM
- TGI (NCI-H23 lung): > 100 µM
- GI50 (LOX IMVI melanoma): 2.9 µM
- TGI (LOX IMVI melanoma): 11.6 µM
- GI50 (T-47D breast): 3.28 µM
- TGI (T-47D breast): > 100 µM
- GI50 (A498 renal): 30.4 µM
- TGI (A498 renal): > 100 µM
- GI50 (HCT-15 colon): 1.94 µM
- TGI (HCT-15 colon): 4.5 µM
- GI50 (SK-OV-3 ovarian): > 100 µM
- TGI (SK-OV-3 ovarian): > 100 µM
- GI50 (SR leukemia): 2.5 µM
- TGI (SR leukemia): > 100 µM
- GI50 (786-0 renal): 5.7 µM
- TGI (786-0 renal): > 100 µM
- GI50 (NCI-H460 lung): 5.04 µM
- TGI (NCI-H460 lung): > 100 µM
- GI50 (HT29 colon): 1.86 µM
- TGI (HT29 colon): 3.82 µM
- GI50 (OVCAR-3 ovarian): 53.1 µM
- TGI (OVCAR-3 ovarian): > 100 µM
- GI50 (OVCAR-5 ovarian): 14.1 µM
- TGI (OVCAR-5 ovarian): > 100 µM
- GI50 (HOP-62 NSCLC): 25.8 µM
- TGI (HOP-62 NSCLC): > 100 µM
- GI50 (HCT-116 colon): 4.82 µM
- TGI (HCT-116 colon): > 100 µM
- GI50 (CAKI-1 renal): 5.07 µM
- TGI (CAKI-1 renal): > 100 µM
- GI50 (IGROV1 ovarian): 34.4 µM
- TGI (IGROV1 ovarian): > 100 µM
- GI50 (K-562 leukemia): 2.69 µM
- TGI (K-562 leukemia): > 100 µM
- GI50 (UACC-62 melanoma): 8.76 µM
- TGI (UACC-62 melanoma): 23.8 µM
